In patent publication US20120073988A1, “Sensor for Measurement of Hydrogen Sulfide” (priority 2004, published 2012):

Assays:
[1] = system: enzyme in the blood vessels that is responsible for H2S production (rat aorta homogenate, VSMC, intact tail artery); test: Real-time H2S production in rat vascular samples supplied with L-cysteine and PLP; assay type: biochemical; details: added after L-cysteine and PLP; FIG. 6
Text: In general, the following biological samples are bathed in the potassium phosphate buffer (PBS) described above. The specific procedures are found in Doeller, J. E., Isbell, T. S., Benavides, G., Koenitzer, J., Patel, H., Patel, P. P., Lancaster, J. R. Jr., Darley-Usmar, V. M., and Kraus, D. W.; Polarographic measurement of hydrogen sulfide production and consumption by mammalian tissues; Anal. Biochem.; (2005) 341: 40-51, the contents of which are incorporated by reference herein.
FIG. 6 illustrates measurement of real-time H2S production in rat aorta homogenate (Aorta homogenate), cultured rat vascular smooth muscle cells (VSMC) and living rat tail artery (Intact Tail Artery). After supplying each of the samples with the amino acid L-cysteine and the vitamin pyridoxal […] (PLP), both substrate and cofactor respectively, for the enzyme in the blood vessels that is responsible for H2S production, a rise in solution H2S concentration is observed.

isolated rat aorta = test: Vessel tension organ bath with isolated rat aorta segments; details: aorta pre-contracted with 100 nM phenylephrine; FIG. 7
Procedure: Individual segments, 4 mm long and 1.5 mm in diameter, are tethered between the bath floor and a sensitive force transducer above the bath in order to measure any vasorelaxation as a decrease in tension. An electrochemical H2S sensor (PHSS) is also immersed in the bath to simultaneously report the H2S concentration. The aorta vessels are first contracted by adding 100 nM phenylephrine, PE, to the bath to stimulate physiological vessel tension. […] Measurement of such an acute response of blood vessels to H2S concentration is only possible with the hydrogen sulfide detection apparatus comprising the PHSS.

[2] = system: mitochondria isolated from marine mussel gills; test: O2 consumption of a mitochondria suspension isolated from mussel gills in a closed chamber; parameters: species or system ribbed mussel Geukensia demissa; details: injections of 12.5 μM sulfide, FIG. 5A
Text: The cellular organelle responsible for O2 consumption in biological cells is the mitochondrion. […] Such rapid kinetic events could not be adequately followed with standard colorimetric methods for H2S determination.
Mitochondria were isolated using the isolation procedure referenced in Parrino, V., D. W. Kraus and J. E. Doeller; ATP production from the oxidation of sulfide in gill mitochondria of the ribbed mussel Geukensia demissa; J. Exp. Biol.; (2000) 203:2209-2218, the contents of which are incorporated by reference herein. The mitochondria were suspended in an aqueous salt- and sucrose-containing buffer described in the Parrino reference.
In FIG. 5A two traces show the real-time concentrations of H2S and O2 in a closed chamber containing a mitochondria suspension isolated from mussel gills. The lower trace is H2S concentration and the upper trace is O2 concentration from a different sensor. […] As the chamber O2 is exhausted the sulfide is consumed much more slowly. In FIG. 5B the derivatives (H2S as lower trace and O2 as upper trace) of the traces in FIG. 5A are shown.

[3] = H2S→H++HS−; HS−→S2−+H+; cited from earlier work

N#CC[C@H](N)C(=O)O [BCA, beta-cyanoalanine]
effect on H2S production [1]: limit any further H2S production

[Na+].[Na+].[S-2] [Na2S]
vessel tension (vasorelaxation) (isolated rat aorta): immediate vasorelaxation event | effect on O2 consumption [2]: stimulate O2 consumption

S [HS^−]
pKa [3]: 14.15

S [H2S, Hydrogen sulfide]
pKa [3]: 6.88
